In patent US10369185B2, “Methods and compositions for enhancement of ability to concentrate” (KYOWA HAKKO BIO CO., LTD., priority 2014, dated 2019):
Peptide text beside a SMILES is read from it.

Columns and labels:
[1] = alanylglutamine compared to glutamine; cited from earlier work
[2] = system: male runners; experiment: Dynavision D2 MODE B reaction test with cognitive load (hits and time per hit in 60 s); format: in vivo, human; set-up: Mode B Avg Δ, Mean Difference: unit not given here; conditions: for Mode B Avg Δ (time per hit), group mean / Mode B Hits Δ, group mean: Post-Pre
Description: The testing protocol is depicted in FIG. 1. Data collection occurred on four separate occasions. Each session required participants to perform a 60-min run at 75% of their previously measured VO2max. Following this run, all participants performed a run at 90% of their VO2max until volitional exhaustion. All participants performed their first trial (DHY) without any rehydration. During this session the total weight lost during the trial was determined. The fluid loss that occurred during this session was then used to determine the participant's swear rate (L·hr^−1). To continue in the study, participant's sweat rate was or exceeded 1.3 L·hr^−1. During the next three trails participants were provided 250 ml of fluid every 15 minutes in equal amounts. During one of the trials participants consumed only a flavored sports drink (ELECT only), while during the other trials participants consumed the alanine-glutamine supplement (Sustamine™) mixed in the same flavored sports drink at either a low (LD: 300 mg per 500 ml) or high (HD: 1 g per 500 ml) dose. Measurement of upper body reaction time was performed on the Dynavision D2 Visuomotor Training Device (D2; Dynavision International LLC, West Chester, Ohio). The D2 is a light training reaction device, developed to train sensory motor integration through the visual system. It consists of a board (4 foot×4 foot) that can be raised or lowered relative to the height of the operator. It contains 64 target buttons arranged into five concentric circles surrounding a center screen that can be illuminated to serve as a stimulus for the participant. Participants were required to assume a comfortable athletic stance and stand at a distance from the board where they could easily reach all of the lights. The board height was adjusted so the LCD screen was located just below eye level. A total of three different reaction tests were conducted. Participants were instructed to fixate their gaze on the LCD screen in the middle of the board and to keep their focus there for the entirety of the experiment. The third assessment (MODE B) was similar to the previous measure in that participants were required to react to a visual stimulus as it changed positions on the board. However, the difference between the two assessments was that the stimulus remained for 1 s before it changed to another random location, and each participant was required to verbally recite a five digit number that was presented on the center screen of the D2 during each assessment. The appearance of the digits placed an additional demand on the information processing resources of the participant. The participant was instructed to successfully identify and strike each stimulus before it changed position and score as many strikes as possible within 60 s. The number of successful hits was recorded for each participant. Additionally, to make inferences on true effects of the different trials on reaction performance, an analysis based on the magnitude of differences, calculated from 90% confidence intervals, as previously described by Batterham and Hopkins (2005), was used in this study. Differences in Post-Pre performance (Δresponse) between trials were analyzed via a published spreadsheet (Hopkins 2007), with the smallest non-trivial change set at 20% of the grand standard deviation (Batterham and Hopkins 2005). All data are expressed as a mean effect±SD, with percent chances of a beneficial, trivial or negative outcome. Qualitative inferences, based on quantitative chances were assessed as: <1% almost certainly not, 1-5% very unlikely, 5-25% unlikely, 25-75% possibly, 75-95% likely, 95-99% very likely and >99% almost certainly (Hopkins 2002).

C[C@H](N)C(=O)N[C@@H](CCC(N)=O)C(=O)O [L-Alanyl-L-Glutamine] (H-Ala-Gln-OH)
solubility in aqueous solutions [1]: superior | stability (heat stability) [1]: superior | Mode B Avg Δ, Interpretation ([2]; Dehydration vs High Dose): likely negative | Mode B Avg Δ, Mean Difference ([2]; Dehydration vs High Dose): −0.023 | Mode B Avg Δ, Percent Negative ([2]; Dehydration vs High Dose): 82.12% | Mode B Avg Δ, Percent Positive ([2]; Dehydration vs High Dose): 1.37% | Mode B Avg Δ, Percent Trivial ([2]; Dehydration vs High Dose): 16.50% | Mode B Hits Δ, Interpretation ([2]; Dehydration vs High Dose): Unclear | Mode B Hits Δ, Mean Difference ([2]; Dehydration vs High Dose): 0.67 | Mode B Hits Δ, Percent Negative ([2]; Dehydration vs High Dose): 20.22% | Mode B Hits Δ, Percent Positive ([2]; Dehydration vs High Dose): 31.57% | Mode B Hits Δ, Percent Trivial ([2]; Dehydration vs High Dose): 48.20% | Mode B Avg Δ, Interpretation ([2]; Dehydration vs Low Dose): Unclear | Mode B Avg Δ, Mean Difference ([2]; Dehydration vs Low Dose): −0.0075 | Mode B Avg Δ, Percent Negative ([2]; Dehydration vs Low Dose): 41.89% | Mode B Avg Δ, Percent Positive ([2]; Dehydration vs Low Dose): 8.13% | Mode B Avg Δ, Percent Trivial ([2]; Dehydration vs Low Dose): 49.99% | Mode B Hits Δ, Interpretation ([2]; Dehydration vs Low Dose): Unclear | Mode B Hits Δ, Mean Difference ([2]; Dehydration vs Low Dose): −1.1 | Mode B Hits Δ, Percent Negative ([2]; Dehydration vs Low Dose): 31.06% | Mode B Hits Δ, Percent Positive ([2]; Dehydration vs Low Dose): 10.62% | Mode B Hits Δ, Percent Trivial ([2]; Dehydration vs Low Dose): 58.32% | Mode B Avg Δ, Interpretation ([2]; Gatorade vs High Dose): No | Mode B Hits Δ, Interpretation ([2]; Gatorade vs High Dose): Unclear | Mode B Hits Δ, Mean Difference ([2]; Gatorade vs High Dose): −0.5 | Mode B Hits Δ, Percent Negative ([2]; Gatorade vs High Dose): 33.43% | Mode B Hits Δ, Percent Positive ([2]; Gatorade vs High Dose): 25.96% | Mode B Hits Δ, Percent Trivial ([2]; Gatorade vs High Dose): 40.61% | Mode B Avg Δ (time per hit), group mean ([2]; High Dose (1 g per 500 ml)): 0 | Mode B Hits Δ, group mean ([2]; High Dose (1 g per 500 ml)): 2.75 | Mode B Avg Δ (time per hit), group mean ([2]; Low Dose (300 mg per 500 ml)): −0.0158 | Mode B Hits Δ, group mean ([2]; Low Dose (300 mg per 500 ml)): 4.5 | Mode B Avg Δ, Interpretation ([2]; Low Dose vs Gatorade): possibly negative | Mode B Avg Δ, Mean Difference ([2]; Low Dose vs Gatorade): −0.016 | Mode B Avg Δ, Percent Negative ([2]; Low Dose vs Gatorade): 70.44% | Mode B Avg Δ, Percent Positive ([2]; Low Dose vs Gatorade): 1.16% | Mode B Avg Δ, Percent Trivial ([2]; Low Dose vs Gatorade): 28.39% | Mode B Hits Δ, Interpretation ([2]; Low Dose vs Gatorade): Unclear | Mode B Hits Δ, Mean Difference ([2]; Low Dose vs Gatorade): 2.3 | Mode B Hits Δ, Percent Negative ([2]; Low Dose vs Gatorade): 25.04% | Mode B Hits Δ, Percent Positive ([2]; Low Dose vs Gatorade): 48.77% | Mode B Hits Δ, Percent Trivial ([2]; Low Dose vs Gatorade): 26.19% | Mode B Avg Δ, Interpretation ([2]; Low Dose vs High Dose): Unclear | Mode B Avg Δ, Mean Difference ([2]; Low Dose vs High Dose): −0.016 | Mode B Avg Δ, Percent Negative ([2]; Low Dose vs High Dose): 64.75% | Mode B Avg Δ, Percent Positive ([2]; Low Dose vs High Dose): 5.03% | Mode B Avg Δ, Percent Trivial ([2]; Low Dose vs High Dose): 30.22% | Mode B Hits Δ, Interpretation ([2]; Low Dose vs High Dose): Unclear | Mode B Hits Δ, Mean Difference ([2]; Low Dose vs High Dose): 1.8 | Mode B Hits Δ, Percent Negative ([2]; Low Dose vs High Dose): 7.59% | Mode B Hits Δ, Percent Positive ([2]; Low Dose vs High Dose): 40.19% | Mode B Hits Δ, Percent Trivial ([2]; Low Dose vs High Dose): 52.22% | successful hits in MODE B and time per successful hits ([2]; between trials): No differences were noted between trials
